Source: patent US20250084056A1, “SUBSTITUTED OXOISOINDOLINYL PIPERIDINE-2,6-DIONE COMPOUNDS” (BRISTOL-MYERS SQUIBB COMPANY, priority 2023, published 2025)

Tests used:
Type in all cases: cell-based
[1] = test system: Phospho-Rb (Ser807/811); experiment: Phospho-Retinoblastoma (pRB) Cellular Assay; settings: Homo sapiens, OVCAR-3, NIH OVCAR3 cells, 24 hours; for IC50: concentration giving 50% response; for Emax: maximum response, reference compound at 10 μM = 100%, read-out: pRB Ymax
Outline: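 Phospho-Rb (Ser807/811) kit read-out on EnVision after lysis (≥4 h, room temperature, dark) of OVCAR3 cells exposed to compound dilutions for 24 h. IC50 and maximum response Ymax are relative to a 10 μM reference compound defining 100%.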

[2] = molecular target: GSPT1 (Homo sapiens, UniProt P15170+Q96SW2); experiment: GSPT1 Cellular Degradation Assay (DF15-GSPT1-ePL); design: expressed in transfected cells; settings: DF15-GSPT1-ePL cells, 20 hours
Outline: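 DC50 and Dmax were derived from chemiluminescence, with 75% response set by the reference compound at […]. Readout was ePL enzyme-fragment complementation in a DF15 line expressing chimeric GSPT1. Cells were exposed to compound for 20 h at 37 °C in RPMI 1640 with 10% FBS, cooled 30 min, then lysed with substrate for 60 min.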

[3] = molecular target: Cyclin E1 (Homo sapiens, UniProt P24864+Q96SW2); experiment: Cyclin E1 Cellular Degradation Assay (MSD); design: endogenous in cells; host or cells: OVCAR3; settings: for DC50 / Dmax: Cyclin E1 cellular degradation; for Dmax: maximum degradation; for Ratio of GSPT1 DC50/Cyclin E1 DC50: selectivity for degradation of Cyclin E1 over GSPT1
Outline: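 Cyclin E1 remaining after 24 h compound exposure of OVCAR3 cells was quantified in lysates by electrochemiluminescent MSD sandwich assay. DC50 (50% response concentration) and Dmax (maximum response) were calculated, with 110% response set by a reference compound at […].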

Sequence of GSPT1 (P15170 whole entry, the tested form may be a part): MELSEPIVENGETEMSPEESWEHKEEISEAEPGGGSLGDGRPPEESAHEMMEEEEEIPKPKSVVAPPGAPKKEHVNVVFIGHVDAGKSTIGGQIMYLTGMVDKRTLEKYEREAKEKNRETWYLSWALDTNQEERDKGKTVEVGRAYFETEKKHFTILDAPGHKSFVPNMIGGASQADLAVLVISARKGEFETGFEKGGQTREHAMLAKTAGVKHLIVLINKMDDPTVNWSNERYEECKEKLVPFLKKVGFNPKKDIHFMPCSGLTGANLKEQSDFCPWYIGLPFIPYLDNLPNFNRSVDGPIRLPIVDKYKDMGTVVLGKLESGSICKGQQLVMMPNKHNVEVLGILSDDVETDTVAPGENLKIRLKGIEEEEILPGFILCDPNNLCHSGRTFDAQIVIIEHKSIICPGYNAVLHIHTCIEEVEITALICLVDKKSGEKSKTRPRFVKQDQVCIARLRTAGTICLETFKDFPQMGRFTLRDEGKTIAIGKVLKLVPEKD
Sequence of GSPT1 (Q96SW2 whole entry, the tested form may be a part): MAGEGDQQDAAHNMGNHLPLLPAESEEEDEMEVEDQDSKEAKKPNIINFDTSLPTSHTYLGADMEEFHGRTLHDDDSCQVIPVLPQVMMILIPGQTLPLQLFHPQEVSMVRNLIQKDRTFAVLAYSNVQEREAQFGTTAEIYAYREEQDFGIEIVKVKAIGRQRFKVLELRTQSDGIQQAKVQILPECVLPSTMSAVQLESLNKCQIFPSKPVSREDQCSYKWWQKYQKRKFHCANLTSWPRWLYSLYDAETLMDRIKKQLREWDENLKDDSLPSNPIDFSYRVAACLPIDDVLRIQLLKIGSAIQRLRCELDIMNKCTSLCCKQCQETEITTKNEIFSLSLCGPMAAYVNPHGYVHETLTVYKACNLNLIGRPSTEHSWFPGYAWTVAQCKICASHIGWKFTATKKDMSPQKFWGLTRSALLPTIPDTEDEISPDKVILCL
Sequence of GSPT1 (Q16531 whole entry partner, the tested form may be a part): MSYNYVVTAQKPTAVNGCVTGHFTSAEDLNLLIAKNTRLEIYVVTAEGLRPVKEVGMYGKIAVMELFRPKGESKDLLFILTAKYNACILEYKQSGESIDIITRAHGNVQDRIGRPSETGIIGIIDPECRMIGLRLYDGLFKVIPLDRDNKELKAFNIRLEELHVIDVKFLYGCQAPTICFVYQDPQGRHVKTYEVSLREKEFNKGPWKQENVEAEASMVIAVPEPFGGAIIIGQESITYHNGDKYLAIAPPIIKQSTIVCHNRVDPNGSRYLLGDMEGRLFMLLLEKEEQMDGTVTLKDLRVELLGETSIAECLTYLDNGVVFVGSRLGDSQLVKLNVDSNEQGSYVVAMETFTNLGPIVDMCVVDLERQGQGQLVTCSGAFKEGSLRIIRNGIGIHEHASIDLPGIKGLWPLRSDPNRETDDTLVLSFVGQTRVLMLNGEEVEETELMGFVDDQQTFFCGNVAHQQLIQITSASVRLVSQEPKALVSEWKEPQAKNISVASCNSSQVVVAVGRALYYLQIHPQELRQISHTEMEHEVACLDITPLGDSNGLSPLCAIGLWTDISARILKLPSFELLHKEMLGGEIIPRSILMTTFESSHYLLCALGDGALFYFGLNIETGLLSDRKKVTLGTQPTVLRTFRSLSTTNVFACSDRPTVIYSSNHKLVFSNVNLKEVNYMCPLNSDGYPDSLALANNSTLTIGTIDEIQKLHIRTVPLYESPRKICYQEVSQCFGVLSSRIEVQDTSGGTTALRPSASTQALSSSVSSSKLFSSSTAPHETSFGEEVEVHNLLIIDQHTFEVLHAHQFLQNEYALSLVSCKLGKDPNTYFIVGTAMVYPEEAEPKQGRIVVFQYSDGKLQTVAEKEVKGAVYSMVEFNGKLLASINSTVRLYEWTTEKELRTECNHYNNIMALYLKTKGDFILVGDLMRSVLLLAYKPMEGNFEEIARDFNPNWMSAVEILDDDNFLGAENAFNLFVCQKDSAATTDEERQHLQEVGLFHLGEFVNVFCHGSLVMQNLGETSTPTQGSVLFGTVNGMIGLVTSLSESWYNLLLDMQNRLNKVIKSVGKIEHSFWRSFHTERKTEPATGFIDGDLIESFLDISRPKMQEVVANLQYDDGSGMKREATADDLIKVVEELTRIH
Sequence of Cyclin E1 (P24864 whole entry): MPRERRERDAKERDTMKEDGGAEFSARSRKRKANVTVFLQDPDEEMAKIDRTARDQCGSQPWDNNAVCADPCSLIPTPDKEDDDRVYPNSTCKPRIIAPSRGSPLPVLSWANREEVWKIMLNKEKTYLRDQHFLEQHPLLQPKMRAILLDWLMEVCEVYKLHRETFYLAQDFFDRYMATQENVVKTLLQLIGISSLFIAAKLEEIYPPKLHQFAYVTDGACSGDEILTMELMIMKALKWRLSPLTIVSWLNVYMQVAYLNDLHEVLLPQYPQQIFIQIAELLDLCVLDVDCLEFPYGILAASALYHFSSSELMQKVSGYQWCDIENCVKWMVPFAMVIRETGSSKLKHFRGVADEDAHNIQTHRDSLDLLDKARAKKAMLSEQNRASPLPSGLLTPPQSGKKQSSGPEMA
Sequence of Cyclin E1 (Q96SW2 whole entry): as the sequence (Q96SW2 whole entry, the tested form may be a part) above
Sequence of Cyclin E1 (Q16531 whole entry partner): as the sequence (Q16531 whole entry partner, the tested form may be a part) above

With O=C1CCC(N2Cc3ccc(COC(=O)Nc4ccc(Oc5ccc(F)c(F)c5)cc4F)c(OC4CCOCC4)c3C2=O)C(=O)N1 (stereo not drawn) [Example 132, [2-(2,6-dioxopiperidin-3-yl)-4-(oxan-4-yloxy)-3-oxo-2,3-dihydro-1H-isoindol-5-yl]methyl N-[4-(3,4-difluorophenoxy)-2-fluorophenyl]carbamate] the IC50 [1] was 0.066 µM, the Emax [1] was 142% and the DC50 [2] was over 14 µM. It also gave a Dmax [2] of 10%, a DC50 [3] of 0.02 µM and a Dmax [3] of 107%. For the same compound, the “Ratio of GSPT1 DC50/Cyclin E1 DC50” value [3] was over 693.
Work on O=C1CCC(N2Cc3ccc(COC(=O)Nc4ccc(Oc5ccc(F)cc5)cc4F)c(O[C@@H]4CCCOC4)c3C2=O)C(=O)N1 (stereo partly drawn) [Example 147, [2-(2,6-dioxopiperidin-3-yl)-4-[(3R)-oxan-3-yloxy]-3-oxo-2,3-dihydro-1H-isoindol-5-yl]methyl N-[2-fluoro-4-(4-fluorophenoxy)phenyl]carbamate] yielded an IC50 [1] of 0.043 µM, an Emax [1] of 137% and a DC50 [2] of over 14 µM. For the same compound, the Dmax [2] was 2%, the DC50 [3] was 0.012 µM and the Dmax [3] was 110%. The “Ratio of GSPT1 DC50/Cyclin E1 DC50” value [3] was >1,121.
O=C1CCC(N2Cc3ccc(COC(=O)Nc4ccc(Oc5cccc(F)c5)cc4)c(O[C@@H]4CCCOC4)c3C2=O)C(=O)N1 (stereo partly drawn) [Example 143, [2-(2,6-dioxopiperidin-3-yl)-4-[(3R)-oxan-3-yloxy]-3-oxo-2,3-dihydro-1H-isoindol-5-yl]methyl N-[4-(3-fluorophenoxy)phenyl]carbamate] was tested, and the IC50 [1] was 0.066 µM, the Emax [1] was 153% and the DC50 [2] was over 14 µM. It also gave a Dmax [2] of 8%, a DC50 [3] of 0.031 µM and a Dmax [3] of 110%. For the same compound, the “Ratio of GSPT1 DC50/Cyclin E1 DC50” value [3] was over 445.
CC(C)(O)COc1c(COC(=O)Nc2ccc(Oc3ccc(F)c(F)c3)cc2)ccc2c1C(=O)N(C1CCC(=O)NC1=O)C2 (stereo not drawn) [Example 159, [2-(2,6-dioxopiperidin-3-yl)-4-(2-hydroxy-2-methylpropoxy)-3-oxo-2,3-dihydro-1H-isoindol-5-yl]methyl N-[4-(3,4-difluorophenoxy)phenyl]carbamate] was tested, and the IC50 [1] was 0.047 µM, the Emax [1] was 145% and the DC50 [2] was over 14 µM. It also gave a Dmax [2] of 21%, a DC50 [3] of 0.015 µM and a Dmax [3] of 101%. For the same compound, the “Ratio of GSPT1 DC50/Cyclin E1 DC50” value [3] was over 937.
O=C1CCC(N2Cc3ccc(COC(=O)Nc4ccc(Oc5ccccc5Cl)cc4)c(OC4CCC4)c3C2=O)C(=O)N1 (stereo not drawn) [Example 127, [4-cyclobutoxy-2-(2,6-dioxopiperidin-3-yl)-3-oxo-2,3-dihydro-1H-isoindol-5-yl]methyl N-[4-(2-chlorophenoxy)phenyl]carbamate] gave an IC50 [1] of 0.048 µM, an Emax [1] of 121% and a DC50 [2] of over 14 µM. For the same compound, the Dmax [2] was 8%, the DC50 [3] was 0.126 µM and the Dmax [3] was 105%. For the same compound, the “Ratio of GSPT1 DC50/Cyclin E1 DC50” value [3] was over 111.
COc1c(COC(=O)Nc2ccc(N(C)c3cccc(F)c3)cc2)ccc2c1C(=O)N(C1CCC(=O)NC1=O)C2 (stereo not drawn) [Example 8, [2-(2,6-dioxopiperidin-3-yl)-4-methoxy-3-oxo-2,3-dihydro-1H-isoindol-5-yl]methyl N-{4-[(3-fluorophenyl)(methyl)amino]phenyl}carbamate] showed an IC50 [1] of 1.23 µM, an Emax [1] of 99% and a DC50 [2] of over 14 µM. It also gave a Dmax [2] of 15%, a DC50 [3] of 0.353 µM and a Dmax [3] of 104%. The “Ratio of GSPT1 DC50/Cyclin E1 DC50” value [3] was over 40.
COc1c(COC(=O)Nc2ccc(Oc3ccc(F)c(Cl)c3)cc2C)ccc2c1C(=O)N(C1CCC(=O)NC1=O)C2 (stereo not drawn) [Example 83, [2-(2,6-dioxopiperidin-3-yl)-4-methoxy-3-oxo-2,3-dihydro-1H-isoindol-5-yl]methyl N-[4-(3-chloro-4-fluorophenoxy)-2-methylphenyl]carbamate] was tested, and the IC50 [1] was 0.172 µM, the Emax [1] was 117% and the DC50 [2] was over 14 µM. For the same compound, the Dmax [2] was 31%, the DC50 [3] was 0.136 µM and the Dmax [3] was 110%. For the same compound, the “Ratio of GSPT1 DC50/Cyclin E1 DC50” value [3] was over 103.
Work on O=C1CCC(N2Cc3ccc(COC(=O)Nc4ccc(Oc5ccc(F)cc5F)cc4F)c(OC4CCOCC4)c3C2=O)C(=O)N1 (stereo not drawn) [Example 136, [2-(2,6-dioxopiperidin-3-yl)-4-(oxan-4-yloxy)-3-oxo-2,3-dihydro-1H-isoindol-5-yl]methyl N-[4-(2,4-difluorophenoxy)-2-fluorophenyl]carbamate] yielded an IC50 [1] of 0.024 µM, an Emax [1] of 144% and a DC50 [2] of over 14 µM. The Dmax [2] was 11%, the DC50 [3] was 0.038 µM and the Dmax [3] was 110%. For the same compound, the “Ratio of GSPT1 DC50/Cyclin E1 DC50” value [3] was over 368.
With O=C1CCC(N2Cc3ccc(COC(=O)Nc4ccc(Oc5ccccc5)cc4)c(Oc4cccnc4)c3C2=O)C(=O)N1 (stereo not drawn) [Example 171, [2-(2,6-dioxopiperidin-3-yl)-3-oxo-4-(pyridin-3-yloxy)-2,3-dihydro-1H-isoindol-5-yl]methyl N-(4-phenoxyphenyl)carbamate] the IC50 [1] was 0.16 µM, the Emax [1] was 130% and the DC50 [2] was over 14 µM. For the same compound, the Dmax [2] was 0%, the DC50 [3] was 0.17 µM and the Dmax [3] was 107%. For the same compound, the “Ratio of GSPT1 DC50/Cyclin E1 DC50” value [3] was over 82.
